Measurements from PMC9334274, “A unique class of Zn^2+-binding serine-based PBPs underlies cephalosporin resistance and sporogenesis in Clostridioides difficile” (Nature Communications, 2022).
Converted amounts (≈) assume the structure as drawn. “And” between values parts separate entries of the source, which are not always exact repeats. Equal values may be shown once. “Also recorded” adds a separate entry of the source. Read-outs that look alike come from different tables or passages of the source.

Key:
Ldt2 = assay: Nitrocefin inhibition assay, Ldt2; assay type: biochemical, Clostridioides difficile R20291; conditions: for Ldt2 % inhibiton: β-lactam at 25 uM, nitrocefin hydrolysis, two independent experiments, individual values; for Nitrcoefin hydrolysis vs inhibitor (reaction curve reading): Idt2, representative curve
Procedure: Reactions were performed in a 96-well polystyrene plate with a final volume of 60 μL at 37 °C in 20 mM Tris pH 7, 200 mM NaCl. […] Protein was then added to the well for a final concentration of 1 µM and incubated for 15 min at 37 °C. 1 µL of nitrocefin (Millipore Sigma) was then added to each well for a final concentration of 20 µM, and reaction progress was monitored using a BioTek Cytation 5 plate reader (BioTek Instruments) at 488 nm and 37 °C for 1 h. Reaction rates were normalized to the control (no inhibitor) for % inhibition values. Assays were performed in duplicate and mean % inhibition values was calculated.

C. difficile PBP3 = assay type: binding, Clostridioides difficile R20291; conditions: for PBP3 % inhibiton: 25 µM
[1] = tested on: C. difficile strain R20291; assay: Minimum inhibitory concentration (MIC) determination; conditions: for MIC: Clostridioides difficile, R20291, 24 h
Ldt3 = assay type: biochemical, Clostridioides difficile R20291; conditions: for Ldt3 % inhibiton / inhibition of Ldt3 (in words): 25 µM

CC1(C)S[C@@H]2[C@H](NC(=O)[C@H](N)c3ccccc3)C(=O)N2[C@H]1C(=O)O [ampicillin]
Ldt2 % inhibiton (Ldt2; listed as AMP, 25 µM): 1.643% and 4.064%
PBP3 % inhibiton (C. difficile PBP3): 92.7496% and 89.9467% and 91.5944%
MIC (X) [1]: 2
MIC [1]: 2 µg/mL (≈ 5.72 µM)

C[C@H]1[C@H](NC(=O)/C(=N\OC(C)(C)C(=O)O)c2csc(N)n2)C(=O)N1S(=O)(=O)O [aztreonam]
MIC [1]: 256 µg/mL (≈ 588 µM)

CO/N=C(\C(=O)N[C@@H]1C(=O)N2C(C(=O)O)=C(/C=C\c3scnc3C)CS[C@H]12)c1csc(N)n1 [cefditoren]
Ldt2 % inhibiton (Ldt2; listed as CDN, 25 µM): 13.9657% and 18.7883%
Ldt3 % inhibiton (Ldt3): 72.482% and 72.4793%
inhibition of Ldt3 (in words) (Ldt3): best
PBP3 % inhibiton (C. difficile PBP3): 82.5587% and 73.9018% and 78.609%
MIC [1]: 16 µg/mL (≈ 31.6 µM)

CO/N=C(\C(=O)N[C@@H]1C(=O)N2C(C(=O)O)=C(COC(C)=O)CS[C@H]12)c1csc(N)n1 [cefotaxime]
Ldt2 % inhibiton (Ldt2; listed as CTX, 25 µM): 12.8454% and 16.2577%
Ldt3 % inhibiton (Ldt3): 7.194% and 11.4876%
PBP3 % inhibiton (C. difficile PBP3): 100.738% and 94.6733% and 99.7428%
MIC (X) [1]: 256
MIC [1]: 256 µg/mL (≈ 562 µM)

CC(C)(O/N=C(\C(=O)N[C@@H]1C(=O)N2C(C(=O)[O-])=C(C[n+]3ccccc3)CS[C@H]12)c1csc(N)n1)C(=O)O [ceftazidime]
PBP3 % inhibiton (C. difficile PBP3): 100% and 96.9383%
MIC [1]: 256 µg/mL (≈ 468 µM)

Nc1nc(/C(=N/O)C(=O)N[C@@H]2C(=O)N3C(C(=O)O)=C(/C=C4\CCN([C@@H]5CCNC5)C4=O)CS[C@H]23)ns1 [ceftobiprole]
Ldt2 % inhibiton (Ldt2; listed as BPR, 25 µM): 0% and 4.7546%
Ldt3 % inhibiton (Ldt3): 8.0036% and 4.298%
PBP3 % inhibiton (C. difficile PBP3): 100% and 96.748%
MIC [1]: 2 µg/mL (≈ 3.74 µM)

CO/N=C(\C(=O)N[C@@H]1C(=O)N2C(C(=O)O)=C(CSc3nc(=O)c(=O)[nH]n3C)CS[C@H]12)c1csc(N)n1 [ceftriaxone]
PBP3 % inhibiton (C. difficile PBP3): 101.93% and 95.7776% and 100%
MIC [1]: 32 µg/mL (≈ 57.7 µM)

CO/N=C(\C(=O)N[C@@H]1C(=O)N2C(C(=O)O)=C(COC(N)=O)CS[C@H]12)c1ccco1 [cefuroxime]
PBP3 % inhibiton (C. difficile PBP3): 99.6269% and 93.7981% and 97.4091%
MIC [1]: 128 µg/mL (≈ 302 µM)

CC1=C(C(=O)O)N2C(=O)[C@@H](NC(=O)[C@H](N)c3ccccc3)[C@H]2SC1 [cephalexin]
inhibition of Ldt2 (in words) (Ldt2; 25 µM): failing to inhibit
Ldt2 % inhibiton (Ldt2): 0%
Ldt3 % inhibiton (Ldt3): 0%
inhibition of Ldt3 (in words) (Ldt3): failing to inhibit
inhibition of PBP3 (in words) (C. difficile PBP3): little to no biochemical inhibition; also recorded: no detectable inhibition
MIC [1]: 4 µg/mL (≈ 11.5 µM)

CC(=O)OCC1=C(C(=O)O)N2C(=O)[C@@H](NC(=O)[C@H](N)c3ccccc3)[C@H]2SC1 [cephaloglycin]
Ldt2 % inhibiton (Ldt2): 0%
Ldt3 % inhibiton (Ldt3): 9.353% and 13.9669%
PBP3 % inhibiton (C. difficile PBP3): 95.4184% and 89.9822% and 93.12%
MIC [1]: 256 µg/mL (≈ 631 µM)

CC(=O)OCC1=C(C(=O)O)N2C(=O)[C@@H](NC(=O)Cc3cccs3)[C@H]2SC1 [cephalothin]
Ldt2 % inhibiton (Ldt2): 0%
Ldt3 % inhibiton (Ldt3): 13.1295% and 19.9174%
PBP3 % inhibiton (C. difficile PBP3): 97.9928% and 94.8412% and 96.842%
MIC [1]: 64 µg/mL (≈ 161 µM)

Cc1onc(-c2ccccc2Cl)c1C(=O)N[C@@H]1C(=O)N2[C@@H]1SC(C)(C)[C@@H]2C(=O)O [cloxacillin]
Nitrcoefin hydrolysis vs inhibitor (reaction curve reading) (Ldt2; time 0 s): 0.044
Nitrcoefin hydrolysis vs inhibitor (reaction curve reading) (Ldt2; time 300 s): 0.046
Nitrcoefin hydrolysis vs inhibitor (reaction curve reading) (Ldt2; time 600 s): 0.048
Nitrcoefin hydrolysis vs inhibitor (reaction curve reading) (Ldt2; time 900 s): 0.05
Nitrcoefin hydrolysis vs inhibitor (reaction curve reading) (Ldt2; time 1200 s): 0.051
Nitrcoefin hydrolysis vs inhibitor (reaction curve reading) (Ldt2; time 1500 s): 0.053
Nitrcoefin hydrolysis vs inhibitor (reaction curve reading) (Ldt2; time 1800 s): 0.054
Nitrcoefin hydrolysis vs inhibitor (reaction curve reading) (Ldt2; time 2100 s): 0.056
Nitrcoefin hydrolysis vs inhibitor (reaction curve reading) (Ldt2; time 2400 s): 0.057
Ldt2 % inhibiton (Ldt2; listed as ClX, 25 µM): 15.534% and 20.6288%
Ldt3 % inhibiton (Ldt3): 89.2086% and 94.2975%
inhibition of Ldt3 (in words) (Ldt3): best
Nitrcoefin hydrolysis vs inhibitor (reaction curve reading) (Ldt3; time 0 s): 0.044
Nitrcoefin hydrolysis vs inhibitor (reaction curve reading) (Ldt3; time 300 s): 0.045
Nitrcoefin hydrolysis vs inhibitor (reaction curve reading) (Ldt3; time 600 s): 0.045
Nitrcoefin hydrolysis vs inhibitor (reaction curve reading) (Ldt3; time 900 s): 0.046
Nitrcoefin hydrolysis vs inhibitor (reaction curve reading) (Ldt3; time 1200 s): 0.046
Nitrcoefin hydrolysis vs inhibitor (reaction curve reading) (Ldt3; time 1500 s): 0.046
Nitrcoefin hydrolysis vs inhibitor (reaction curve reading) (Ldt3; time 1800 s): 0.046
Nitrcoefin hydrolysis vs inhibitor (reaction curve reading) (Ldt3; time 2100 s): 0.046
Nitrcoefin hydrolysis vs inhibitor (reaction curve reading) (Ldt3; time 2400 s): 0.046
PBP3 % inhibiton (C. difficile PBP3): 82.7754% and 83.7053% and 84.4216%
MIC [1]: 16 µg/mL (≈ 36.7 µM)

C[C@@H](O)[C@H]1C(=O)N2C(C(=O)O)=C(S[C@@H]3CN[C@H](CNS(N)(=O)=O)C3)[C@H](C)[C@H]12 [doripenem]
inhibition of Ldt2 (in words) (Ldt2; 25 µM): best inhibitors of Ldt2
Nitrcoefin hydrolysis vs inhibitor (reaction curve reading) (Ldt2; time 0 s): 0.043
Nitrcoefin hydrolysis vs inhibitor (reaction curve reading) (Ldt2; time 300 s): 0.044
Nitrcoefin hydrolysis vs inhibitor (reaction curve reading) (Ldt2; time 600 s): 0.045
Nitrcoefin hydrolysis vs inhibitor (reaction curve reading) (Ldt2; time 900 s): 0.045
Nitrcoefin hydrolysis vs inhibitor (reaction curve reading) (Ldt2; time 1200 s): 0.045
Nitrcoefin hydrolysis vs inhibitor (reaction curve reading) (Ldt2; time 1500 s): 0.045
Nitrcoefin hydrolysis vs inhibitor (reaction curve reading) (Ldt2; time 1800 s): 0.046
Nitrcoefin hydrolysis vs inhibitor (reaction curve reading) (Ldt2; time 2100 s): 0.046
Nitrcoefin hydrolysis vs inhibitor (reaction curve reading) (Ldt2; time 2400 s): 0.047
Ldt2 % inhibiton (Ldt2; listed as DOR, 25 µM): 92.8305% and 93.0982%
Ldt3 % inhibiton (Ldt3): 49.0108% and 45.9504%
Nitrcoefin hydrolysis vs inhibitor (reaction curve reading) (Ldt3; time 0 s): 0.045
Nitrcoefin hydrolysis vs inhibitor (reaction curve reading) (Ldt3; time 300 s): 0.046
Nitrcoefin hydrolysis vs inhibitor (reaction curve reading) (Ldt3; time 600 s): 0.048
Nitrcoefin hydrolysis vs inhibitor (reaction curve reading) (Ldt3; time 900 s): 0.049
Nitrcoefin hydrolysis vs inhibitor (reaction curve reading) (Ldt3; time 1200 s): 0.05
Nitrcoefin hydrolysis vs inhibitor (reaction curve reading) (Ldt3; time 1500 s): 0.051
Nitrcoefin hydrolysis vs inhibitor (reaction curve reading) (Ldt3; time 1800 s): 0.052
Nitrcoefin hydrolysis vs inhibitor (reaction curve reading) (Ldt3; time 2100 s): 0.052
Nitrcoefin hydrolysis vs inhibitor (reaction curve reading) (Ldt3; time 2400 s): 0.053
PBP3 % inhibiton (C. difficile PBP3): 95.9747% and 95.7759% and 97.3818%
MIC [1]: 1 µg/mL (≈ 2.38 µM)

C[C@@H](O)[C@H]1C(=O)N2C(C(=O)O)=C(SCCN=CN)C[C@H]12 [imipenem]
Ldt2 % inhibiton (Ldt2; listed as IMI, 25 µM): 15.7605% and 16.7178%
PBP3 % inhibiton (C. difficile PBP3): 83.9601% and 87.3785% and 88.7659%
MIC [1]: 128 µg/mL (≈ 428 µM)

C[C@@H](O)[C@H]1C(=O)N2C(C(=O)O)=C(S[C@@H]3CN[C@H](C(=O)N(C)C)C3)[C@H](C)[C@H]12 [meropenem]
inhibition of Ldt2 (in words) (Ldt2; 25 µM): best inhibitors of Ldt2
Ldt2 % inhibiton (Ldt2; listed as MEM, 25 µM): 88.3495% and 88.0368%
Ldt3 % inhibiton (Ldt3): 25.5396% and 27.8512%
PBP3 % inhibiton (C. difficile PBP3): 95.105% and 95.5466% and 97.2164%
MIC [1]: 4 µg/mL (≈ 10.4 µM)

COc1cccc(OC)c1C(=O)N[C@@H]1C(=O)N2[C@@H]1SC(C)(C)[C@@H]2C(=O)O [methicillin]
PBP3 % inhibiton (C. difficile PBP3): 92.4606% and 92.3713% and 94.0819%
MIC [1]: 8 µg/mL (≈ 21 µM)

CC1(C)S[C@@H]2[C@H](NC(=O)Cc3ccccc3)C(=O)N2[C@H]1C(=O)O [penicillin G]
Ldt2 % inhibiton (Ldt2; listed as EM, 25 µM): 2.091% and 5.675%
Ldt3 % inhibiton (Ldt3): 58.9928% and 66.7769%
PBP3 % inhibiton (C. difficile PBP3): 94.9098% and 94.1115% and 95.4645%
MIC (X) [1]: 1
MIC [1]: 1 µg/mL (≈ 2.99 µM)

CCN1CCN(C(=O)N[C@@H](C(=O)N[C@@H]2C(=O)N3[C@@H]2SC(C)(C)[C@@H]3C(=O)O)c2ccccc2)C(=O)C1=O [piperacillin]
inhibition of Ldt2 (in words) (Ldt2; 25 µM): best inhibitors of Ldt2
Ldt2 % inhibiton (Ldt2; listed as PIP, 25 µM): 57.879% and 59.7393%
Ldt3 % inhibiton (Ldt3): 51.7086% and 57.3554%
PBP3 % inhibiton (C. difficile PBP3): 92.03% and 94.7239% and 96.6236%
MIC [1]: 16 µg/mL (≈ 30.9 µM)
